Assay results: article PMC8786932, “Bicyclic azetidines target acute and chronic stages of Toxoplasma gondii by inhibiting parasite phenylalanyl t-RNA synthetase” (Nature Communications, 2022)
Values joined by “and” are separate entries in the source; they are usually repeats but may differ in a detail not shown here. Equal entries are not always repeated. Where two headings read alike, the source gives them in different places.

What was measured:
[1] = test system: T. gondii tachyzoites (type II ME49-FLuc); experiment: Luciferase-based tachyzoite growth assay; format: cell-based, Toxoplasma gondii; parameters: EC50 log inhib vs normalized response: unit: µM
Protocol: All assays were carried out in a 96-well plate format containing confluent HFF monolayers to support parasite growth. To avoid edge effects, only the inner 60 wells of each plate were used. All compounds described were provided by the Broad Institute as 10 mM stocks in 100% DMSO and stored at −80 °C prior to use. Pyrimethamine (Sigma-Aldrich) was prepared as 5 mM stock in 100% DMSO and stored at −20 °C prior to use.
(§1) All statistical analyses were conducted using Prism 9 (GraphPad Software, Inc.). Dose–response inhibition curves for parasite and host cell toxicity screens (EC50 values) were generated using (Log(inhibitor) vs. normalized response—Variable slope) function. […] For multiple comparisons, two-way ANOVA analysis function using either Sidák’s multiple comparisons test or Dunnett’s multiple comparisons test was applied as indicated.

[2] = in vitro; format: cell-based, human; settings: human, top 20 μM
Protocol: (§2) For the toxicity screen, compounds were tested in 96-well plates using all the wells as no edge affect was observed. Compounds were diluted to 40 μM (2x concentration in 10% DMEM, 0.4% DMSO) before step-wise, 3-fold dilution in 10% DMEM to create 10-dose series (20 μM to 0.001 μM). Host cells were plated in black, μ-Clear 96-well plates (Greiner Bio-One). We compared several lineages including HepG2 (human hepatocellular carcinoma (ATCC-HB-8065)), THP-1 (human monocytic tumor line), SH-SY5Y (human neuroblastoma (ATCC CRL-2266)), A549 (human lung carcinoma (ATCC CRM-CCL-185)) and Caco-2 (human intestinal adenocarcinoma (ATCC HTB-37)) and HFF (primary human foreskin fibroblast) obtained from the laboratory of John Boothroyd at Stanford University. Cells were maintained in culture media according to the formulations recommended by ATCC. Cells were plated at a density (ranging from of 5 × 10^3 to 2 × 10^4 cells/well (100 μL vol)) resulting in sub-confluent monolayers to allow expansion during the 2 day growth assay. THP-1 cells were treated with 10 ng/ml phorbol 12-myristate 13-acetate (PMA) for 24 h to differentiate into macrophages before compound addition. For all other cells, compounds were added at 6 h post seeding to host cells containing plates (200 μL final volume, 0.2% DMSO) and incubated in culture medium at 37 °C supplemented with 5% CO2. At 44 h post compound addition (50 h total growth time), culture media was aspirated and replaced with Live Imaging solution (ThermoFisher) supplemented with 10 μg/mL Hoeschst 33342 (Sigma) for 20 min at 37 °C. […] Alternatively, plates fixed with 4% formaldehyde for 10 min and stained with 10 μg/mL Hoeschst 33342 (Sigma) for 20 min and imaged using a Cytation 3 multi-mode imager (DAPI, 10x objective, 4 images/well) and nuclei quantified using the Gen5 imager software (v3.08). Assays were repeated with two technical replicates within each of two independent biological replicates.
as §1

[3] = test system: SH-SY5Y (human neuroblastoma); experiment: in vitro; format: cell-based; settings: EC50 host cell/EC50 T. gondii
Protocol: as §2, §1

[4] = test system: THP-1 (human monocytic tumor line); experiment: in vitro; format: cell-based; settings: EC50 host cell/EC50 T. gondii
Protocol: as §2, §1

[5] = in vitro; format: cell-based; settings: human, Caco-2; for EC50: nuclei count, 44 h, top 20 μM; for selectivity ratio: EC50 host cell/EC50 T. gondii, read-out: Caco-2 fold selectivity
Protocol: as §2, §1

[6] = test system: in vitro induced T. gondii ME49-FLuc bradyzoite cysts; experiment: In vitro bradyzoite growth assay, cyst size (3 d induction + 2 d treatment); format: cell-based, Toxoplasma gondii; settings: for Cyst size (individual cysts): area within cyst wall, measured in microns; for effect on cyst size: at the EC90 or 3xEC90, 2 days after 3 days induction
Protocol: To monitor the effects of compounds on early bradyzoite differentiation, ME49-Fluc tachyzoites were inoculated onto HFF monolayers grown on coverslips in 24-well plates and allowed infect during a 2 h incubation in 3% DMEM (DMEM containing glutamine (10 mM), gentamycin (10 μg/mL,) and 3% FBS) at 37°C, 5% CO2. The medium was replaced with RPMI 1640 pH 8.2 and cells were cultured in ambient CO2 at 37°C for 3 days to induce bradyzoites. […] Samples were fixed and stained using biotinylated Dolichos biflorus lectin (DBL) (Vector Laboratories (#B-1035-5) […]) followed by Alexa Fluor 488 streptavidin (Thermo Fischer (#S11223) 1:1,000 dilution) and mouse mAb 8.25.8 anti-BAG1 (from Dr. Louis Wiess) (1:1,100)[56] followed by goat anti-mouse IgG conjugated to Alexa Fluor 568 (Thermo Fischer (#A-1104) 1:1,000). Samples were analyzed using a Zeiss AxioObserver Z1 equipped with Colibri LED illumination using a 40x EC Plan-Neofluar objective (N.A. 1.3) and images were captured using an ORCA-ER digital camera operated using ZEN v3.3 (Carl Zeiss). Cyst size was determined by measuring the area defined by the perimeter of the cyst wall as measured in microns.

[7] = test system: in vitro derived T. gondii ME49-FLuc bradyzoites; experiment: Plaque assay of bradyzoites induced in vitro for 14 days; format: cell-based, Toxoplasma gondii; settings: Fig 5F, replicates
Protocol: To monitor the effects of compounds on more mature in vitro derived bradyzoites, ME49-Fluc tachyzoites were inoculated onto HFF monolayers grown in T25[2] flasks and bradyzoites were induced for 12 days in RPMI 1640 pH 8.2 at ambient CO2 and 37°C. Cultures were then treated with compounds at EC90 or 3XEC90 for another 2 days. At the end of 14 days, monolayers were scraped and passed through a 23 g needle to liberate cysts, followed by centrifugation (400 × g, 10 min, 4 °C). Pellets were resuspended with Pearce^TM streptavidin magnetic beads (Thermo Fisher) pre-coupled with biotinylated DBL (Vector laboratories) and incubated for 1 h at 4 °C. Beads were collected and washed twice using a magnetic stand, followed by treatment with 0.25 mg/ml trypsin for 10 min to liberate bradyzoites. Released bradyzoites were collected from the supernatant and counted using a hemocytometer. Bradyzoites were inoculated onto 6-well plates confluent with HFF monolayers and cultured for 14 days, followed by ethanol fixation and staining with 0.01% crystal violet. Plaques or foci of infection were imaged using an Axiovert 100 microscope equipped with an AxioCam color camera and analyzed by ImageJ.

[8] = test system: blood-stage P. falciparum; settings: Fig 2A Tg_Pf_Cp EC50s; previously reported values, reference not visible in the shown part; cited from earlier work
[9] = Fig 1A rank order, T. gondii growth
[10] = Toxoplasma gondii, ME49-FLuc, 10-point dose-response, two biological replicates, read-out: EC50, T. gondii tachyzoite growth
[11] = Toxoplasma gondii, Table 2, read-out: T. gondii EC50
[12] = Toxoplasma gondii, Table S1, ME49-FLuc tachyzoites, read-out: T. gondii EC50
[13] = PMA differentiated, read-out: THP-1 EC50
[14] = nuclei count, 44 h, read-out: A549 EC50
[15] = nuclei count, 44 h, read-out: HFF EC50
[16] = nuclei count, 44 h, read-out: SH-SY5Y EC50
[17] = nuclei count, 44 h after compound addition, read-out: HEPG2 EC50
[18] = Toxoplasma gondii, Fig 2A Tg_Pf_Cp EC50s, read-out: EC50 T. gondii
[19] = Toxoplasma gondii, from 10-dose-response curve of Fig. 1, read-out: EC90, tachyzoite growth

| SMILES | EC50 log inhib vs normalized response [1, 9] | EC50 [1, 10] [nM] | EC50 [1, 11] [nM] | EC50 [1, 12] [nM] | EC50 [2, 13] [nM] | EC50 [2, 14] [nM] | EC50 [2, 15] [nM] | EC50 [2, 16] [nM] | EC50 [2, 17] [nM] | SH-SY5Y fold selectivity [3] [fold] | THP-1 fold selectivity [4] [fold] | EC50 [5] [nM] | Cyst size (individual cysts) ([6]; 3XEC90, 2 days) | Cyst size (individual cysts) ([6]; EC90, 2 days) | effect on cyst size [6] | Plaque numbers ([7]; 3xEC90) | Plaque numbers ([7]; EC90) | EC50 [8] [nM] | EC50 [1, 18] [nM] | selectivity ratio [5] | other results |
| --- | --- | --- | --- | --- | --- | --- | --- | --- | --- | --- | --- | --- | --- | --- | --- | --- | --- | --- | --- | --- | --- |
| CN(C[C@@H]1[C@H](c2ccc(C#Cc3ccccc3)cc2)[C@@H]2CN(C(=O)Nc3ccc(OC4CC4)cc3)CCCCN12)S(C)(=O)=O [BRD2987] | 0.01849 | 18.5 | 19 | 18 | 255 | 2170 | > 20000 | 2360 | > 20000 | 123.9 | 13.4 | > 20000 | 210 and 276.2 and 29.32 and 152.5 and 78.3 and 34.32 and 25.15 and 91.33 and 112.7 and 36.9 and 64.42 and 29.43 and 70.1 and 40.53 and 119.9 and 26.89 and 53.28 and 150.6 and 151.3 and 93.74 | 236.6 and 67.46 and 53.54 and 238 and 123.3 and 64.95 and 39.29 and 138.8 and 102.4 and 187.5 and 285.6 and 103.1 and 283.5 and 243.7 and 89.72 and 170.5 and 68.94 and 144.9 and 116.2 and 59.27 | significantly diminished cyst size | 0 and 5 | 0 | 2 | – | – | EC50 ([1]; Toxoplasma gondii, Fig S2 source data, read-out: T. gondii (EC50, Fig S2 source data)): 18.5 nM |
| COc1ccc(NC(=O)N2CCCCN3[C@H](CO)[C@H](c4ccc(C#Cc5ccccc5)cc4)[C@@H]3C2)cc1 [BRD3444] | 0.02885 | 28.9 | 29 | 28 | 2580 | > 20000 | > 20000 | 2660 | 11300 | 91.9 | 88.9 | 7820 | 55.84 and 108.4 and 18.78 and 55.57 and 227.1 and 49.46 and 37.83 and 273.6 and 101.6 and 179.3 and 249.8 and 34.55 and 88.71 and 51.38 and 34.99 and 140.8 and 42.55 and 30.36 and 52.48 and 90.45 | 20.97 and 95.37 and 274.5 and 251.3 and 190.7 and 326.2 and 209.9 and 125.4 and 65.68 and 59.54 and 81.3 and 20.04 and 43.73 and 427 and 253.3 and 87.22 and 217.7 and 114.5 and 214.1 and 137.7 | significantly diminished cyst size | 0 | 5 and 0 | 12 | 28.9 | 270 | – |
| COc1ccc(NC(=O)N2CCCCN3[C@H](CN(C)S(C)(=O)=O)[C@H](c4ccc(C#Cc5ccccc5)cc4)[C@@H]3C2)cc1 [BRD8494] | 0.03476 | 34.8 | 35 | 34 | 461 | > 20000 | > 20000 | 1780 | > 20000 | 51.0 | 13.2 | > 20000 | 46.64 and 167.1 and 52.11 and 128.7 and 180.9 and 64.9 and 103 and 36.82 and 65.28 and 41.9 and 105.7 and 87.22 and 144.1 and 114.5 and 214.1 and 103.8 and 343.4 and 159.3 and 37.35 and 133.8 | 112 and 360 and 182.2 and 110.4 and 32.16 and 37.14 and 75.73 and 23.46 and 145.9 and 108.1 and 145.1 and 279 and 170.3 and 246.7 and 83.16 and 29.6 and 216.4 and 92.48 and 64.36 and 16.16 | significantly diminished cyst size | 0 | 0 | 26 | 34.8 | 571 | EC90 [1, 19]: 95 nM |
| COc1ccc(NC(=O)N2CCCCN3[C@H](CN(C)C)[C@H](c4ccc(C#Cc5ccccc5)cc4)[C@@H]3C2)cc1 [BRD7929] | – | 23 | 23 | 22 | 672 | 5370 | 7870 | 731 | 3060 | – | – | 7000 | 70.79 and 76.24 and 90.26 and 38.16 and 85.34 and 130.5 and 42.83 and 30.86 and 19.37 and 49.32 and 117.9 and 50.48 and 21.2 and 120.5 and 75.85 and 64.97 and 70.16 and 108.7 and 69.23 and 113 | 112.8 and 142 and 65 and 40.33 and 94.48 and 106.3 and 167.8 and 104.7 and 129.7 and 105.6 and 65.07 and 56.59 and 80.88 and 43.39 and 143.9 and 81.69 and 71.88 and 171.2 and 68.84 and 66.51 | significantly diminished cyst size | 0 | 0 | 13 | – | – | EC50 log inhib vs normalized response [1]: 0.0226; 3XEC90 ([1]; Fig 6A source data): 293.00; EC50 ([1]; ME49-FLuc, 10-point dose-response, two biological replicates, listed as BR7929, read-out: EC50, T. gondii tachyzoite growth): 22.6 nM; EC50 ([1]; Toxoplasma gondii, Fig 6A source data, in vitro tachyzoites, read-out: EC50): 23 nM; EC90 ([1]; Toxoplasma gondii, Fig 6A source data, in vitro tachyzoites, read-out: EC90): 98 nM; EC90 [1, 19]: 98 nM; 3xEC90, tachyzoite growth ([1]; three times EC90): 0.293 µM |
